# Assay results as given in ChEMBL document CHEMBL4622979, “Non-rigid Diarylmethyl Analogs of Baloxavir as Cap-Dependent Endonuclease Inhibitors of Influenza Viruses” (J Med Chem, 2020).
# Activity calls are given as the source filed them. No cut-off for these calls is given here.
# Key:
# [1] = Stability in rat liver S9 fraction assessed as parent compound remaining at 1 uM measured after 4 hrs by LC-MS/MS analysis; format: ADME, subcellular; conditions: read-out: Stability
# [2] = Stability in mouse liver S9 fraction assessed as parent compound remaining at 1 uM measured after 4 hrs by LC-MS/MS analysis; format: ADME, subcellular; conditions: read-out: Stability
# [3] = Stability in human liver S9 fraction assessed as parent compound remaining at 1 uM measured after 4 hrs by LC-MS/MS analysis; format: ADME, subcellular; conditions: read-out: Stability
# [4] = Stability in mouse plasma assessed as parent compound remaining at 1 uM measured after 4 hrs by LC-MS/MS analysis; format: ADME, cell-free; conditions: read-out: Stability
# [5] = Stability in human plasma assessed as parent compound remaining at 1 uM measured after 4 hrs by LC-MS/MS analysis; format: ADME, cell-free; conditions: read-out: Stability
# [6] = Stability in rat plasma assessed as parent compound remaining at 1 uM measured after 4 hrs by LC-MS/MS analysis; format: ADME, cell-free; conditions: read-out: Stability
# [7] = Stability in simulated gastric fluid assessed as parent compound remaining at 1 uM measured after 4 hrs at pH 1.2 by LC-MS/MS analysis; format: physicochemical; conditions: read-out: Stability
# [8] = Stability in simulated intestinal fluid assessed as parent compound remaining at 1 uM measured after 4 hrs at pH 1.2 by LC-MS/MS analysis; format: physicochemical; conditions: read-out: Stability
# [9] = system: HEK-293T; test: (§1) Inhibition of CEN polymerase activity in Influenza A/California/04/2009 (H1N1)pdm09 NP/PA/PB1/PB2 complex transfected in HEK293T cells co-expressing beta-galactosidase at 25 nM preincubated for 3 hrs followed by viral gene transfection and measured after 24 hrs by ONPG substrate based luciferase reporter gene mini-replicon assay relative to control; format: cell-based; conditions: Influenza A virus (A/California/04/2009(H1N1))
# [10] = system: HEK-293T; test: as §1, with “100” for “25”; format: cell-based; conditions: Influenza A virus (A/California/04/2009(H1N1))
# [11] = Cytotoxicity against MDCK cells assessed as reduction in cell viability by CellTiter-Glo assay; format: cell-based, Canis lupus familiaris; conditions: dog
# [12] = system: Influenza A virus; test: Antiviral activity against Influenza A/California/04/2009 (H1N1)pdm09 infected in MDCK cells assessed as protection against virus-induced cell death by CellTiter-Glo assay; format: functional, organism-based; conditions: A/California/04/2009(H1N1) pdm09, MDCK
# [13] = Selectivity index, ratio of CC50 for MDCK cells to EC50 for Influenza A/California/04/2009 (H1N1)pdm09 virus infected in MDCK cells; format: toxicity, cell-based; conditions: dog, read-out: Ratio CC50/EC50
# [14] = system: Influenza B virus; test: Antiviral activity against Yamagata lineage of Influenza B virus (B/Florida/4/2006) infected in MDCK cells assessed as protection against virus-induced cell death measured 72 to 96 hrs post-infection by CellTiter-Glo assay; format: functional, organism-based
# [15] = Oral bioavailability in CD1 mouse at 10 mg/kg administered as single dose by LC-MS/MS analysis; format: ADME, organism-based; conditions: in vivo
# [16] = AUClast in CD1 mouse plasma at 2 mg/kg, iv administered as single dose by LC-MS/MS analysis; format: ADME, organism-based; set-up: dose 2 mg/kg, route intravenous, time 0 - last
# [17] = system: Influenza B virus; test: Antiviral activity against Victoria lineage of Influenza B virus (B/Brisbane/60/2008) infected in MDCK cells assessed as protection against virus-induced cell death measured 72 to 96 hrs post-infection by CellTiter-Glo assay; format: functional, organism-based
# [18] = AUClast in CD1 mouse plasma at 10 mg/kg, po administered as single dose by LC-MS/MS analysis; format: ADME, organism-based; set-up: dose 10 mg/kg, route oral, time 0 - last
# [19] = system: Influenza A virus H3N2; test: Antiviral activity against Influenza A virus (A/Fukui/20/2004 (H3N2)) infected in MDCK cells assessed as protection against virus-induced cell death measured 72 to 96 hrs post-infection by CellTiter-Glo assay; format: functional, organism-based
# [20] = Cmax in CD1 mouse plasma at 10 mg/kg, po administered as single dose by LC-MS/MS analysis; format: ADME, organism-based; set-up: dose 10 mg/kg, route oral
# [21] = system: Influenza A virus; test: Antiviral activity against Influenza A virus (A/Denmark/524/2009(H1N1)) pdm09 infected in MDCK cells assessed as protection against virus-induced cell death measured 72 to 96 hrs post-infection by CellTiter-Glo assay; format: functional, organism-based
# [22] = Cmax in CD1 mouse lung at 10 mg/kg, po administered as single dose by LC-MS/MS analysis; format: ADME, organism-based; set-up: dose 10 mg/kg, route oral
# [23] = Ratio of Cmax in CD1 mouse lung to plasma at 10 mg/kg, po administered as single dose by LC-MS/MS analysis; format: ADME, organism-based; conditions: lung and plasma
# [24] = AUClast in CD1 mouse lung at 10 mg/kg, po administered as single dose by LC-MS/MS analysis; format: ADME, organism-based; conditions: in vivo
# [25] = Ratio of AUClast in CD1 mouse lung to plasma at 10 mg/kg, po administered as single dose by LC-MS/MS analysis; format: ADME, organism-based; conditions: lung and plasma, read-out: Ratio AUC
# [26] = AUClast in CD1 mouse plasma assessed as (12aR)-12-[Bis(4-fluorophenyl)methyl]-7-hydroxy-3,4,12,12a-tetrahydro-1H-[1,4]oxazino[3,4-c]pyrido[2,1-f][1,2,4]triazine-6,8-dione level at 15 mg/kg, po administered as single dose by LC-MS/MS analysis; format: ADME, organism-based; set-up: dose 15 mg/kg, time 0 - last, route oral; conditions: in vivo
# [27] = Ratio of Cmax in CD1 mouse lung to plasma assessed as (12aR)-12-[Bis(4-fluorophenyl)methyl]-7-hydroxy-3,4,12,12a-tetrahydro-1H-[1,4]oxazino[3,4-c]pyrido[2,1-f][1,2,4]triazine-6,8-dione level at 15 mg/kg, po administered as single dose by LC-MS/MS analysis; format: ADME, organism-based; conditions: other tissue
# [28] = Cmax in CD1 mouse plasma assessed as (12aR)-12-[Bis(4-fluorophenyl)methyl]-7-hydroxy-3,4,12,12a-tetrahydro-1H-[1,4]oxazino[3,4-c]pyrido[2,1-f][1,2,4]triazine-6,8-dione level at 15 mg/kg, po administered as single dose by LC-MS/MS analysis; format: ADME, organism-based; set-up: dose 15 mg/kg, route oral; conditions: in vivo
# [29] = Ratio of AUClast in CD1 mouse lung to plasma assessed as (12aR)-12-[Bis(4-fluorophenyl)methyl]-7-hydroxy-3,4,12,12a-tetrahydro-1H-[1,4]oxazino[3,4-c]pyrido[2,1-f][1,2,4]triazine-6,8-dione level at 15 mg/kg, po administered as single dose by LC-MS/MS analysis; format: ADME, organism-based; conditions: other tissue
# [30] = Cmax in CD1 mouse lung assessed as (12aR)-12-[Bis(4-fluorophenyl)methyl]-7-hydroxy-3,4,12,12a-tetrahydro-1H-[1,4]oxazino[3,4-c]pyrido[2,1-f][1,2,4]triazine-6,8-dione level at 15 mg/kg, po administered as single dose by LC-MS/MS analysis; format: ADME, organism-based; set-up: dose 15 mg/kg, route oral; conditions: in vivo
# [31] = AUClast in CD1 mouse lung assessed as (12aR)-12-[Bis(4-fluorophenyl)methyl]-7-hydroxy-3,4,12,12a-tetrahydro-1H-[1,4]oxazino[3,4-c]pyrido[2,1-f][1,2,4]triazine-6,8-dione level at 15 mg/kg, po administered as single dose by LC-MS/MS analysis; format: ADME, organism-based; conditions: in vivo
# [32] = Oral bioavailability in CD1 mouse assessed as (12aR)-12-[Bis(4-fluorophenyl)methyl]-7-hydroxy-3,4,12,12a-tetrahydro-1H-[1,4]oxazino[3,4-c]pyrido[2,1-f][1,2,4]triazine-6,8-dione level at 15 mg/kg administered as single dose by LC-MS/MS analysis; format: ADME, organism-based; conditions: in vivo
Structure (SMILES),"remaining at 4 h, 1 µM [1] [%]","remaining at 4 h, 1 µM [2] [%]","remaining at 4 h, 1 µM [3] [%]","remaining at 4 h, 1 µM [4] [%]","remaining at 4 h, 1 µM [5] [%]","remaining at 4 h, 1 µM [6] [%]",inhibition [9] [%],inhibition [10] [%],CC50 [11] [µM],EC50 [12] [µM],selectivity ratio [13],bioavailability [15] [%],AUC(0-t) [16] [ng·h/mL],AUC(0-t) [18] [ng·h/mL],Cmax [20] [ng/mL],other results
O=c1ccc2ccc(O)cc2o1 [UMBELLIFERONE],2.74,0.83,0.39,–,–,–,–,–,–,–,–,–,–,–,–,–
CC(C)[N+](C)(CCOC(=O)C1c2ccccc2Oc2ccccc21)C(C)C [PROPANTHELINE],–,–,–,1.21,1.28,74.3,–,–,–,–,–,–,–,–,–,–
O=C(O)CCCc1ccc(N(CCCl)CCCl)cc1 [CHLORAMBUCIL],–,–,–,–,–,–,–,–,–,–,–,–,–,–,–,"remaining at 4 h, 1 µM [7]: 97.2%; remaining at 4 h, 1 µM [8]: 0.04%"
CSc1ccccc1[C@@H](c1ccc(F)c(F)c1)N1[C@@H]2COCCN2C(=O)c2c(O)c(=O)ccn21,–,–,–,–,–,–,3.1,13.2,9.8,0.146,67,–,–,–,–,–
O=C1c2c(O)c(=O)ccn2N([C@@H]2c3ccccc3SCc3c2ccc(F)c3F)[C@@H]2COCCN12 [BALOXAVIR],85,87.7,93.5,45.4,89.9,73.9,99.6,99.7,5.6,0.0009,> 1000,3,354,79.9,11.9,Activity [14]: Active; Activity [17]: Active; Activity [19]: Active; Activity [21]: Active
O=C1c2c(O)c(=O)ccn2N([C@H](c2ccccc2)c2ccc(F)c(F)c2)[C@@H]2COCCN12,95.4,95.2,104,114,85.7,94.4,42.2,83.9,15.9,0.0154,> 1000,2.7,2210,303,115,Cmax [22]: 264 ng/g; Kp [23]: 2.3; AUClast [24]: 384 ng·h/g; Kp [25]: 1.3
O=C1c2c(O)c(=O)ccn2N(C(c2ccc(F)cc2)c2ccc(F)cc2)[C@@H]2COCCN12,98.3,103,97,–,–,–,45.4,80,13.3,0.0134,993,22.6,1070,1820,308,"remaining at 4 h, 1 µM [7]: 87.3%; Cmax [22]: 935 ng/g; Kp [23]: 3; AUClast [24]: 4490 ng·h/g; Kp [25]: 2.5; remaining at 4 h, 1 µM [8]: 96%"
O=C1c2c(O)c(=O)ccn2N(C(c2ccc(F)c(F)c2)c2ccc(F)c(F)c2)[C@@H]2COCCN12,–,–,–,–,–,–,50.2,80.9,13.8,0.0226,611,–,–,–,–,–
O=C1c2c(O)c(=O)ccn2N([C@@H](c2ccccc2)c2ccc(F)c(F)c2)[C@@H]2COCCN12,99.6,92.4,113,105,90.3,85.8,28.4,63.2,12.1,0.0225,538,17.6,927,817,332,"EC50 ([14]; B/Florida/4/2006, MDCK): 5.1 to 28.3 µM; Cmax [22]: 501 ng/g; EC50 ([17]; B/Brisbane/60/2008, MDCK): 5.1 to 28.3 µM; Kp [23]: 1.5; AUClast [24]: 735 ng·h/g; Kp [25]: 0.9; EC50 ([19]; A/Fukui/20/2004, MDCK): 0.0036 to 0.0125 µM; EC50 ([21]; A/Denmark/524/2009(H1N1) pdm09, MDCK): 0.0036 to 0.0125 µM"
COC(=O)OCOc1c2n(ccc1=O)N(C(c1ccc(F)cc1)c1ccc(F)cc1)[C@@H]1COCCN1C2=O,–,–,–,–,–,–,–,–,–,–,–,–,–,–,–,"remaining at 4 h, 1 µM [7]: 98.4%; AUClast [26]: 3186 ng·h/mL; Ratio [27]: 1.1; Cmax [28]: 647 ng/mL; Ratio AUC [29]: 1; remaining at 4 h, 1 µM [8]: 99.7%; Cmax [30]: 708 ng/g; AUClast [31]: 3302 ng·h/g; F [32]: 39.6%"
CSc1ccccc1[C@H](c1ccc(F)c(F)c1)N1[C@@H]2COCCN2C(=O)c2c(O)c(=O)ccn21,–,–,–,–,–,–,22.9,74.1,16.4,0.0321,511,–,–,–,–,–
